Assay results reported in patent US11274083B2, “Substituted thiophenyl uracils, salts thereof and the use thereof as herbicidal agents” (Syngenta Crop Protection AG, priority 2017, dated 2022).

How the values were obtained:
Format in all cases: in vivo
[1] = tested on: Abutilon theophrasti; test: Herbicidal action post-emergence, greenhouse pot test
Summary of the method: (§1)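 Compounds formulated as wettable powders or emulsion concentrates were applied post-emergence at 80 g/ha or lower to one-leaf plants grown in sandy loam. Percent efficacy relative to untreated controls was assessed visually roughly 3 weeks after treatment.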

[2] = tested on: Alopecurus myosuroides; test: as above; settings: scored visually after about 3 weeks vs untreated controls
Summary of the method: as §1

[3] = tested on: Amaranthus retroflexus; test: as above
Summary of the method: as §1

[4] = tested on: Avena fatua; test: as above
Summary of the method: as §1

[5] = tested on: Echinochloa crus-galli; test: as above
Summary of the method: as §1

[6] = tested on: Matricaria inodora; test: as above
Summary of the method: as §1

[7] = tested on: Pharbitis purpurea; test: as above
Summary of the method: as §1

[8] = tested on: Polygonum convolvulus; test: as above
Summary of the method: as §1

[9] = tested on: Setaria viridis; test: as above; settings: application rate 20 g/ha
Summary of the method: as §1

[10] = tested on: Stellaria media; test: as above
Summary of the method: as §1

[11] = tested on: Veronica persica; test: as above
Summary of the method: as §1

[12] = tested on: Viola tricolor; test: as above
Summary of the method: as §1

[13] = tested on: Oryza sativa; test: Crop compatibility post-emergence, greenhouse pot test; settings: application rate 20 g/ha
Summary of the method: (§2)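 Greenhouse post-emergence spray at one-leaf stage, 600 L/ha with 0.5% additive. Injury was assessed visually after about 3 weeks as % of untreated control.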

[14] = tested on: Zea mays; test: as above; settings: application rate 20 g/ha
Summary of the method: as §2

[15] = tested on: Digitaria sanguinalis; test: Herbicidal action post-emergence, greenhouse pot test; settings: application rate 20 g/ha
[16] = tested on: Hordeum murinum; test: as above; settings: application rate 20 g/ha
Summary of the method: as §1

[17] = tested on: Lolium rigidum; test: as above
Summary of the method: as §1

[18] = tested on: Triticum aestivum; test: Crop compatibility post-emergence, greenhouse pot test
Summary of the method: as §2

[19] = tested on: Abutilon theophrasti; test: Herbicidal action pre-emergence, greenhouse pot test; settings: application rate 320 g/ha
Summary of the method: (§3)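 Visual scoring of percentage efficacy against untreated controls, about 3 weeks after treatment, gives the value; 100% means dead plants, 0% means no difference. Test compounds went onto the covering soil of freshly sown pots at 320 g/ha or lower.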

[20] = tested on: Alopecurus myosuroides; test: as above; settings: application rate 320 g/ha
Summary of the method: as §3

[21] = tested on: Amaranthus retroflexus; test: as above
Summary of the method: as §3

[22] = tested on: Avena fatua; test: as above; settings: application rate 320 g/ha
Summary of the method: as §3

[23] = tested on: Cyperus esculentus; test: as above; settings: application rate 320 g/ha
Summary of the method: as §3

[24] = tested on: Echinochloa crus-galli; test: as above; settings: application rate 320 g/ha
Summary of the method: as §3

[25] = tested on: Hordeum murinum; test: as above; settings: application rate 320 g/ha
Summary of the method: as §3

[26] = tested on: Lolium rigidum; test: as above; settings: application rate 320 g/ha
Summary of the method: as §3

[27] = tested on: Pharbitis purpurea; test: as above; settings: application rate 320 g/ha
Summary of the method: as §3

[28] = tested on: Polygonum convolvulus; test: as above; settings: application rate 320 g/ha
Summary of the method: as §3

[29] = tested on: Setaria viridis; test: as above; settings: application rate 320 g/ha
Summary of the method: as §3

[30] = tested on: Stellaria media; test: as above; settings: application rate 320 g/ha
Summary of the method: as §3

[31] = tested on: Veronica persica; test: as above; settings: application rate 320 g/ha
Summary of the method: as §3

[32] = tested on: Viola tricolor; test: as above; settings: application rate 320 g/ha
Summary of the method: as §3

[33] = tested on: Matricaria inodora; test: as above; settings: application rate 320 g/ha

SMILES | Abutilon theophrasti (Efficacy in %) ([1]; application rate 20 g/ha) | Amaranthus retroflexus (Efficacy in %) ([3]; application rate 20 g/ha) | Echinochloa crus-galli (Efficacy in %) ([5]; application rate 20 g/ha) | Matricaria inodora (Efficacy in %) ([6]; application rate 20 g/ha) | Pharbitis purpurea (Efficacy in %) ([7]; application rate 20 g/ha) | Setaria viridis (Efficacy in %) [9] | Stellaria media (Efficacy in %) ([10]; application rate 20 g/ha) | Veronica persica (Efficacy in %) ([11]; application rate 20 g/ha) | Viola tricolor (Efficacy in %) ([12]; application rate 20 g/ha) | Oryza sativa (Efficacy in %) [13] | Zea mays (Efficacy in %) [14] | Alopecurus myosuroides (Efficacy in %) ([2]; application rate 80 g/ha) | Avena fatua (Efficacy in %) ([4]; application rate 80 g/ha) | Lolium rigidum (Efficacy in %) ([17]; application rate 80 g/ha) | Polygonum convolvulus (Efficacy in %) ([8]; application rate 80 g/ha) | Abutilon theophrasti (Efficacy in %) [19] | Cyperus esculentus (Efficacy in %) [23] | Echinochloa crus-galli (Efficacy in %) [24] | Hordeum murinum (Efficacy in %) [25] | Pharbitis purpurea (Efficacy in %) [27] | other results
CCOC(=O)CCOC(=O)C(CC)Sc1cc(-n2c(=O)cc(C(F)(F)F)n(C)c2=O)c(F)cc1Cl (stereo not drawn) [I.1-2-3, 3-Ethoxy-3-oxopropyl 2-({2-chloro-4-fluoro-5-[3-methyl-2,6-dioxo-4-(trifluoromethyl)-3,6-dihydropyrimidin-1(2H)-yl]phenyl}sulfanyl)butanoate] | 100% | 100% | 100% | 100% | 100% | 100% | 100% | 100% | 100% | 0% | 0% | – | – | – | – | – | – | – | – | – | Alopecurus myosuroides (Efficacy in %) ([2]; application rate 20 g/ha): 90%; Avena fatua (Efficacy in %) ([4]; application rate 20 g/ha): 100%; Polygonum convolvulus (Efficacy in %) ([8]; application rate 20 g/ha): 100%; Digitaria sanguinalis (Efficacy in %) [15]: 100%
CC(Sc1cc(-n2c(=O)cc(C(F)(F)F)n(C)c2=O)c(F)cc1Cl)C(=O)OCC(=O)OCc1ccccc1 (stereo not drawn) [I.1-46] | 100% | 100% | 100% | 100% | 100% | 100% | 100% | 100% | 100% | – | – | – | – | – | – | – | – | – | – | – | Alopecurus myosuroides (Efficacy in %) ([2]; application rate 20 g/ha): 80%; Hordeum murinum (Efficacy in %) [16]: 100%; Lolium rigidum (Efficacy in %) ([17]; application rate 20 g/ha): 80%; Polygonum convolvulus (Efficacy in %) ([8]; application rate 20 g/ha): 100%; Triticum aestivum (Efficacy in %) ([18]; application rate 20 g/ha): 20%; Digitaria sanguinalis (Efficacy in %) [15]: 100%
CNC(=O)COC(=O)C(C)Sc1cc(-n2c(=O)cc(C(F)(F)F)n(C)c2=O)c(F)cc1Cl (stereo not drawn) [I.1-182] | – | – | – | – | – | – | – | – | 100% | 20% | 20% | 80% | 90% | 100% | 100% | 100% | 80% | 100% | 90% | 100% | Abutilon theophrasti (Efficacy in %) ([1]; application rate 80 g/ha): 100%; Amaranthus retroflexus (Efficacy in %) ([3]; application rate 80 g/ha): 100%; Echinochloa crus-galli (Efficacy in %) ([5]; application rate 80 g/ha): 100%; Matricaria inodora (Efficacy in %) ([6]; application rate 80 g/ha): 100%; Pharbitis purpurea (Efficacy in %) ([7]; application rate 80 g/ha): 100%; Stellaria media (Efficacy in %) ([10]; application rate 80 g/ha): 100%; Veronica persica (Efficacy in %) ([11]; application rate 80 g/ha): 100%; Triticum aestivum (Efficacy in %) ([18]; application rate 5 g/ha): 10%; Alopecurus myosuroides (Efficacy in %) [20]: 80%; Amaranthus retroflexus (Efficacy in %) ([21]; application rate 80 g/ha): 100%; Avena fatua (Efficacy in %) [22]: 90%; Lolium rigidum (Efficacy in %) [26]: 100%; Polygonum convolvulus (Efficacy in %) [28]: 100%; Setaria viridis (Efficacy in %) [29]: 100%; Stellaria media (Efficacy in %) [30]: 100%; Veronica persica (Efficacy in %) [31]: 100%; Viola tricolor (Efficacy in %) [32]: 100%; Matricaria inodora (Efficacy in %) [33]: 100%
CC(Sc1cc(-n2c(=O)cc(C(F)(F)F)n(C)c2=O)c(F)cc1Cl)C(=O)OC1CCNC1=O (stereo not drawn) [I.1-251] | – | – | – | – | – | 100% | – | – | – | 20% | 10% | 100% | 80% | 100% | 100% | 100% | 80% | 100% | 90% | 100% | Abutilon theophrasti (Efficacy in %) ([1]; application rate 80 g/ha): 100%; Amaranthus retroflexus (Efficacy in %) ([3]; application rate 80 g/ha): 100%; Echinochloa crus-galli (Efficacy in %) ([5]; application rate 80 g/ha): 100%; Matricaria inodora (Efficacy in %) ([6]; application rate 80 g/ha): 100%; Pharbitis purpurea (Efficacy in %) ([7]; application rate 80 g/ha): 100%; Stellaria media (Efficacy in %) ([10]; application rate 80 g/ha): 100%; Veronica persica (Efficacy in %) ([11]; application rate 80 g/ha): 100%; Viola tricolor (Efficacy in %) ([12]; application rate 80 g/ha): 100%; Triticum aestivum (Efficacy in %) ([18]; application rate 20 g/ha): 10%; Alopecurus myosuroides (Efficacy in %) [20]: 100%; Amaranthus retroflexus (Efficacy in %) ([21]; application rate 80 g/ha): 100%; Avena fatua (Efficacy in %) [22]: 90%; Polygonum convolvulus (Efficacy in %) [28]: 100%; Setaria viridis (Efficacy in %) [29]: 100%; Veronica persica (Efficacy in %) [31]: 100%; Viola tricolor (Efficacy in %) [32]: 100%; Matricaria inodora (Efficacy in %) [33]: 100%
COC(=O)CC(CC(=O)OC)OC(=O)CSc1cc(-n2c(=O)cc(C(F)(F)F)n(C)c2=O)c(F)cc1Cl [I.8-127] | 100% | 100% | 100% | 100% | 100% | 100% | 100% | 100% | – | – | – | 80% | 80% | 90% | 100% | 100% | 90% | 100% | 90% | 100% | Viola tricolor (Efficacy in %) ([12]; application rate 80 g/ha): 100%; Amaranthus retroflexus (Efficacy in %) ([21]; application rate 20 g/ha): 100%; Lolium rigidum (Efficacy in %) [26]: 90%; Polygonum convolvulus (Efficacy in %) [28]: 100%; Setaria viridis (Efficacy in %) [29]: 100%; Stellaria media (Efficacy in %) [30]: 100%; Veronica persica (Efficacy in %) [31]: 100%; Matricaria inodora (Efficacy in %) [33]: 100%
